We go through ten compounds from patent publication US20230200393A1, “SELECTIVE HERBICIDES BASED ON SUBSTITUTED ISOXAZOLIN CARBOXAMIDES AND METCAMIFEN” (Bayer Aktiengesellschaft, priority 2020, published 2023).

Structures are written as SMILES.

Assay [1] has as its system ZEAMA Sileno. The experiment in a line: Tank-mix post-emergence crop damage, herbicide with/without safener metcamifen. The class given is in vivo, maize. Particulars: for HER effect + SAF / Reduction [%] / Reduction [Difference]: Final; for HER effect: no safener, Final assessment, post-emergence. As to the method: (§1) Seeds of crops (spring wheat, TRZAS; spring barley, HORVS; maize, ZEAMA) were placed in sandy loam soil in peat pots, covered with soil and cultivated in a greenhouse under good growth conditions. Two to three weeks after sowing, the test plants were treated at the 1 to 3-leaf stage. The herbicide/safener active compound combinations according to the invention, formulated as wettable powders or emulsion concentrates, and, in parallel tests, the correspondingly formulated individual active compounds were sprayed onto the green parts of the plants in various dosages using an amount of water of 300 l/ha (converted).
(§2) The pots were returned under good growing conditions in a glasshouse and a visual assessment of herbicidal effects was made at intervals from 1 to 3 weeks after herbicide application (DAT=days after treatment). Assessment was on a percentage basis in comparison with untreated control plants (0%=no injury, 100%=complete kill).

Assay [2] relates to TRZAS Triso. The assay is described as above. The class given is in vivo, spring wheat. Particulars: 21 DAT. As to the method:
as §1, §2

Assay [3] concerns ZEAMA Sileno. The experiment in a line: Safener seed treatment, pre-emergence herbicide crop damage. It counts as in vivo, maize. Particulars: for HER effect: no safener. As to the method: (§3) For the safener seed treatment, sufficient seeds of the respective crops (spring wheat, TRZAS; spring barley, HORVS; maize, ZEAMA) were weighed into screw top glass bottles approximately twice the volume of the seeds.
(§4) The specified safeners, formulated as wettable powder (WP) were weighed out so that the specified rates (g a.i./kg seed) would be obtained, dissolved in water (1 ml water per 10 g of seeds), and added to the seeds to produce a slurry.
(§5) The bottles were capped and then placed in an overhead shaker (set at medium speed for ca. 60 minutes) so that the seeds were evenly coated with the slurry. The bottles were uncapped and the seeds were either placed on paper and dried for an interval of 3-4 hours prior to sowing, or directly sown. Seeds were placed in sandy loam soil in pots of a diameter of 7-8 cm, and covered with soil.
(§6) Pre-emergence application of the specified herbicides was done subsequently, on two sets of plants:
(§7) a) seed treatment with safener, as described above
(§8) The herbicides were formulated as WP and was sprayed onto the soil surface as an aqueous suspension at an equivalent water application rate of 300 l/ha.
(§9) After application, the test plants were kept in the greenhouse under good growth conditions. At intervals up to 4 weeks after application (=28 days after treatment; DAT), % crop damage observed on the treated plants was scored visually in comparison to control plants that had not received any safener or herbicide treatment.
(§10) Values in the table below are mean values of at least 2 replicates.

In assay [4] the test system is TRZAS Triso. The description is as above. It counts as in vivo, spring wheat. Particulars: 21 (Final) DAT; for HER effect: no safener. As to the method:
as §3, §4, §5, §6, §7, §8, §9, §10

[5] abbreviates: HER 8 g a.i./ha + metcamifen 50 g a.i./ha.
Setting [6] is: HER 32 g a.i./ha + metcamifen 100 g a.i./ha.
Setting [7] is: HER 0.5 g a.i./ha + metcamifen 50 g a.i./ha.
Where [8] appears, read: HER 2 g a.i./ha + metcamifen 50 g a.i./ha.
Where [9] appears, read: HER 40 g a.i./ha pre-emergence, 14 DAT.
Where [10] appears, read: HER 80 g a.i./ha + metcamifen seed treatment 0.25 g a.i./kg seed, 14 DAT.
[11] abbreviates: HER 80 g a.i./ha + metcamifen seed treatment 0.25 g a.i./kg seed, 26 DAT.
The mark [12] stands for this setting: HER 5 g a.i./ha + metcamifen seed treatment 0.25 g a.i./kg seed.
[13] abbreviates: HER 15 g a.i./ha + metcamifen seed treatment 0.25 g a.i./kg seed.
The mark [14] stands for this setting: HER 40 g a.i./ha + metcamifen seed treatment 0.25 g a.i./kg seed, 14 DAT.
Where [15] appears, read: HER 40 g a.i./ha + metcamifen seed treatment 0.25 g a.i./kg seed, 26 DAT.
[16] abbreviates: HER 8 g a.i./ha + metcamifen 100 g a.i./ha.
The mark [17] stands for this setting: HER 32 g a.i./ha + metcamifen 50 g a.i./ha.

For `C=CC1(C(=O)NC2C=CC(C(=O)OC)C2)CC(c2cc(F)cc(F)c2)=NO1` (stereo not drawn) [Example 1.26], the “HER effect + SAF” value in assay [1] (setting [5]) is on record as 22%; in assay [1] (setting [6]), 35%; in assay [2] (setting [7]), 20%; in assay [2] (setting [8]), 80%. Besides, the “Reduction [%]” value came to 61% in assay [1] (setting [5]); 63% in assay [1] (setting [6]); 50% in assay [2] (setting [7]); 11% in assay [2] (setting [8]); 86% in assay [3] (setting [10]); 86% in assay [3] (setting [11]). Besides, the “Reduction [Difference]” value in assay [1] (setting [5]) was 35; in assay [1] (setting [6]) it was 59; in assay [2] (setting [8]), 10. Also, the HER effect is listed as 57% in assay [1] (HER 8 g a.i./ha); 94% in assay [1] (HER 32 g a.i./ha); 90% in assay [2] (HER 2 g a.i./ha, no safener); 25% in assay [3] (setting [9]).

As to `COC(=O)C1COCC1NC(=O)C1(C)CC(c2cc(F)cc(F)c2)=NO1` (mixture of isomers) [Example 1.93], in assay [4] (setting [12]), the “HER effect + SAF” value is reported as 5%, the “Reduction [%]” value is listed as 86% and the “Reduction [Difference]” value was determined as 30. For the same compound, in assay [4] (HER 5 g a.i./ha pre-emergence), the HER effect came to 35%. Also, in assay [4] (setting [13]), the “HER effect + SAF” value came out at 10%, the “Reduction [%]” value was determined as 85% and the “Reduction [Difference]” value is listed as 55. The HER effect in assay [4] (HER 15 g a.i./ha pre-emergence) was 65%.

On to `C=CC1(C(=O)NC2COC(C(=O)OC)C2)CC(c2cc(F)cc(F)c2)=NO1` (stereo not drawn) [Example 1.69], for which, in assay [3] (setting [14]), the “HER effect + SAF” value is listed as 20%, the “Reduction [%]” value was determined as 79% and the “Reduction [Difference]” value amounted to 75. In addition, in assay [3] (setting [15]), the “Reduction [%]” value turned out to be 67% and the “Reduction [Difference]” value is on record as 60.

Take `COCCOC(=O)C1C=CC(NC(=O)C2(C)CC(c3cc(Cl)cc(C#N)c3)=NO2)C1` (stereo not drawn) [Example 1.5]: the results for the “HER effect + SAF” value in assay [3] (setting [10]) and in assay [3] (setting [11]) were 35% and 25%, respectively. Also, the figures for the “Reduction [%]” value in assay [3] (setting [10]) and in assay [3] (setting [11]) were 42% and 44%, respectively.

For `C=CC1(C(=O)NC2COC(C(=O)OC)C2)CC(c2cc(F)cc(F)c2)=NO1` (mixture of isomers) [Example 1.68], the “HER effect + SAF” value in assay [1] (setting [16]) was determined as 48%; in assay [1] (setting [17]) it was 67%; in assay [4] (setting [12]), 10%; in assay [3] (setting [14]) it was 30%; in assay [3] (setting [10]) it was 75%. The “Reduction [Difference]” value in assay [1] (setting [16]) amounted to 48; in assay [1] (setting [17]), 31; in assay [3] (setting [14]) it was 63; in assay [3] (setting [15]) it was 70; in assay [3] (setting [10]), 22. The HER effect in assay [1] (HER 8 g a.i./ha) is on record as 96%; in assay [1] (HER 32 g a.i./ha), 98%; in assay [3] (HER 40 g a.i./ha pre-emergence, 26 DAT), 95%; in assay [3] (HER 80 g a.i./ha pre-emergence, 14 DAT), 97%. The “Reduction [%]” value in assay [1] (setting [17]) was determined as 32%; in assay [4] (setting [12]) it was 78%; in assay [3] (setting [14]), 68%; in assay [3] (setting [15]), 74%; in assay [3] (setting [10]), 23%.

As to `CSCCOC(=O)C1C=CC(NC(=O)C2(C(F)(F)F)CC(c3cc(F)cc(F)c3)=NO2)C1` (stereo not drawn) [Example 1.7], in assay [3] (setting [14]), the “HER effect + SAF” value is reported as 55%, the “Reduction [%]” value stood at 34% and the “Reduction [Difference]” value came out at 28. In addition, in assay [3] (setting [15]), the “Reduction [%]” value is listed as 44% and the “Reduction [Difference]” value came to 20. In assay [3] (setting [9]), this compound registered an HER effect of 83%.

On to `COC(=O)C1OCCC1NC(=O)C1(C)CC(c2cc(F)cc(F)c2)=NO1` (stereo not drawn) [Example 1.92], for which, in assay [3] (setting [14]), the “Reduction [%]” value is on record as 87% and the “Reduction [Difference]” value was determined as 65. Also, in assay [3] (setting [15]), the “HER effect + SAF” value is on record as 0% and the “Reduction [%]” value was found to be 100%.

For `COCCOC(=O)C1C=CC(NC(=O)C2(C(F)(F)F)CC(c3cc(F)cc(C#N)c3)=NO2)C1` (stereo not drawn) [Example 1.2], in assay [3] (setting [14]), the “HER effect + SAF” value is recorded as 20%, the “Reduction [%]” value was determined as 50% and the “Reduction [Difference]” value is on record as 20. Moreover, in assay [3] (setting [9]), the HER effect was determined as 40%.

Consider `C=CC1(C(=O)NC2COC(C(=O)OC)C2)CC(c2cc(F)cc(F)c2)=NO1` (stereo not drawn) [Example 1.70], for which the entries for the “HER effect + SAF” value in assay [3] (setting [14]), in assay [3] (setting [15]) and in assay [3] (setting [11]) were 20%, 5% and 25%, respectively. The “Reduction [%]” value in assay [3] (setting [14]) is 75%; in assay [3] (setting [15]), 94%; in assay [3] (setting [10]), 63%; in assay [3] (setting [11]), 74%. The “Reduction [Difference]” value is reported as 60 in assay [3] (setting [14]), 80 in assay [3] (setting [15]), 60 in assay [3] (setting [10]) and 70 in assay [3] (setting [11]).

`C=CC1(C(=O)NC2C=C(C(=O)OC)OC2)CC(c2cc(C)cc(C)c2)=NO1` (stereo not drawn) [Example 1.90]: in assay [3] (setting [11]), the “Reduction [%]” value amounted to 83% and the “Reduction [Difference]” value was found to be 25. The compound also came in with an HER effect in assay [3] (HER 80 g a.i./ha pre-emergence, 26 DAT) of 30%.
